For one substance, solubility results are on record in patent US20250188076A1, “SOLID STATE FORMS OF TOLEBRUTINIB AND OF TOLEBRUTINIB SALTS” (TEVA PHARMACEUTICAL INTERNATIONAL GMBH, priority 2022, published 2025).

The data set is described as follows: Solubility comparison in water and aqueous acetate buffer at pH 4.5.

As to Tolebrutinib [Tolebrutinib Form CSI], the solubility (usually the concentration that dissolves in the medium under given conditions) was under 0.2 mg/mL.
